What was measured:
ERα [1] = test: Luciferase reporter gene assay for ERα in MCF-7 cells; assay type: cell-based, human; settings: MCF-7 cells transfected with ERE-luc reporter, three concentrations, 24 h
Procedure: Cell transfection and luciferase activity assay were utilized to investigate the effects of the compounds on ER transcriptional activation. The human breast cancer cell line MCF-7 was obtained from the Beijing Key Laboratory of Drug Target Research and Drug Screening, Chinese Academy of Medical Sciences (Beijing, China). Dulbecco's Modified Eagle's Medium (DMEM) culture medium containing 10% fetal calf serum (FBS), 100 U/mL penicillin, and 100 μg/mL streptomycin was used as complete culture medium. The culture conditions were at 37°C, saturated humidity, and 5% CO2. The culture medium was changed every day and when the confluence of cells reached 90%, MCF-7 cells were digested with 0.25% trypsin containing 0.02% EDTA and then cultured under the same culture conditions. MCF-7 cells in logarithmic growth phase were resuspended in 3 mL complete culture medium and were seeded on 24-well plates with a density of 1 × 10^5/well overnight. After incubation for 24 h, cells were grown to approximately 60–80% confluence and then washed by culture medium without serum. MCF-7 cells were cotransfected with the reporter plasmid pGL2-ERE3-luc. Based on the manufacturer's instructions, transfection was mediated by lipofectamine 3000 (Invitrogen). After incubation for 12 h, transfection medium was eliminated, and MCF-7 cells were treated with three concentrations of compounds for 24 h. Then, MCF-7 cells were washed with phosphate-buffered saline (PBS) and cell lysis was collected after oscillation with a low speed. Finally, the luciferase activity was determined by dual-luciferase reporter assay system (Promega) according to the product manual.

ERα [2] = target: T1, ERα (Homo sapiens, UniProt P03372); test: green PolarScreen ERα Competitor Assay (fluorescence polarization); assay type: binding
T1 construct: purchased Life Technologies
T1 sequence (P03372 1-595): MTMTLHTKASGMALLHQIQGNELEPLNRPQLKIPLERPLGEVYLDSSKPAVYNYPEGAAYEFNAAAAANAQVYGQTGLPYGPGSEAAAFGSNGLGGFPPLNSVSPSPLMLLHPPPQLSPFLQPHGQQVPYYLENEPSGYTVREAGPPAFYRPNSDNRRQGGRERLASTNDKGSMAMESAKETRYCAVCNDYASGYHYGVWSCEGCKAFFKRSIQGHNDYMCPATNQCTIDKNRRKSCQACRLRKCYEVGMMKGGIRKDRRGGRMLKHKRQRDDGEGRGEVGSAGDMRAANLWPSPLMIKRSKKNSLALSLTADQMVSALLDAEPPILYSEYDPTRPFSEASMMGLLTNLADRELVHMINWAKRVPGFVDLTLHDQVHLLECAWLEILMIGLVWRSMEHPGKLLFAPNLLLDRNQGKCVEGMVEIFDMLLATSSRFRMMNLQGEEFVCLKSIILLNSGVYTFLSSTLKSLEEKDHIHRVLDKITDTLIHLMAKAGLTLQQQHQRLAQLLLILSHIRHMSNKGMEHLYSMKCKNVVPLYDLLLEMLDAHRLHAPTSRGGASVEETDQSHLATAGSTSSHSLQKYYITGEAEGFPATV
Procedure: The ERα binding affinities of representative compounds predicted as ERα antagonists were measured by fluorescence polarization procedure using green PolarScreen™ ERα Competitor Assay kit (Life Technologies, CA, United States of America). Briefly, 75 nM ERα together with 4.5 nM fluormone was mixed with a series of concentrations of the test compounds in the assay buffer. Then, they were incubated for 2 h in room temperature in black low volume 384-well assay plate with NBS surface (Corning, NY, United States of America) for fluorescence polarization assay. Subsequently, the detection wavelength was set at excitation wavelength 485 nm and emission wavelength 535 nm with bandwidths of 25/20 nm in EnVision Workstation version 1.7 (PerkinElmer, MA, United States of America). 2104 EnVision® Multilabel Plate Reader was performed for the measurements.

[3] = 75 nM ERα, 4.5 nM fluormone, 2 h, room temperature

With `O=c1c(-c2ccc(O)cc2)coc2cc(O)cc(O)c12` [Genistein] the “Antiestrogenic effects (ERα transactivation, luciferase activity)” value (“Antiestrogenic effects” below) (ERα [1]) was “decrease the expression of the ERα remarkably at a dose-dependent manner”.

`O=c1oc2c(O)c(O)cc3c(=O)oc4c(O)c(O)cc1c4c23` [Ellagic acid] was tested, and the IC50 (ERα [2]; [3]) was 0.0626 ± 0.00934 µM and the “Antiestrogenic effects” value (ERα [1]) was “decrease the expression of ERα at high and medium concentrations”.

With `C[C@@H]1O[C@@H](O[C@H]2[C@H](Oc3cc(O)c4c(c3)O[C@H](c3ccc(O)cc3)CC4=O)O[C@H](CO)[C@@H](O)[C@@H]2O)[C@H](O)[C@H](O)[C@H]1O` [naringin] the IC50 (ERα [2]; values in μM) was greater than 10 µM.

In the case of `COc1cc(C2Oc3cc([C@H]4Oc5cc(O)cc(O)c5C(=O)[C@@H]4O)ccc3OC2CO)ccc1O` (stereo partly shown) [silibinin], the IC50 (ERα [2]; values in μM) is reported as greater than 10 µM.

With `C[C@H]1[C@H](C)CC[C@]2(C(=O)O)CC[C@]3(C)C(=CC[C@@H]4[C@@]5(C)CC[C@H](O)C(C)(C)[C@@H]5CC[C@]43C)[C@H]12` [Ursolic acid] the “Antiestrogenic effects” value (ERα [1]) was “antiestrogenic effects only at high dose”.

With `O=C(OC1Cc2c(O)cc(O)cc2OC1c1cc(O)c(O)c(O)c1)c1cc(O)c(O)c(O)c1` (single isomer, unassigned; (-)) [EGCG, (−)-epigallocatechin-3-gallate] the IC50 (ERα [2]; [3]) was 0.066 ± 0.0116 µM.

`COc1ccc(-c2cc(=O)c3c(O)cc(O[C@@H]4O[C@H](CO[C@@H]5O[C@@H](C)[C@H](O)[C@@H](O)[C@H]5O)[C@@H](O)[C@H](O)[C@H]4O)cc3o2)cc1O` [diosmin] showed an IC50 (ERα [2]; values in μM) greater than 10 µM.

In the case of `O=C(CCc1ccc(O)cc1)c1c(O)cc(O)cc1O` [Phloretin], the IC50 (ERα [2]; [3]) is reported as 0.0745 ± 0.0242 µM and the “Antiestrogenic effects” value (ERα [1]) is reported as “regulated the expression of ERα in MCF-7 cells in a dose-dependent way”.

In the case of `O=C1C[C@@H](c2ccc(O)cc2)Oc2cc(O)cc(O)c21` [Naringenin], the IC50 (ERα [2]; [3]) is reported as 0.968 ± 0.0709 µM and the “Antiestrogenic effects” value (ERα [1]) is reported as “weak antiestrogenic effects”.

For `O=c1c(-c2ccc(O)cc2)coc2cc(O)ccc12` [Daidzein], the “Antiestrogenic effects” value (ERα [1]) was “antagonist activity was lower than that of genistein”.

Source: publication PMC5971309, “Identification of Estrogen Receptor α Antagonists from Natural Products via In Vitro and In Silico Approaches” (Oxidative Medicine and Cellular Longevity, 2018)
